Measurements: the RepoRT retention time repository (doi:10.1016/j.foodchem.2021.129757)
Counter-ions that a name gives are not always drawn.

Experiment: RP, Waters ACQUITY UPLC HSS T3, 100 × 2.1 mm, 1.8 µm, 30 °C, 0.4 mL/min, estimated dead time 0.55 min; A: water + 0.1% formic acid, pH 3; B: acetonitrile + 0.1% formic acid, pH 3; gradient (min/%B) 0/0 2/0 15/100 22/100 22.1/0 26/0
Conditions: stereoisomer not certain

Row | SMILES | LC retention time [min]
1 | CN1CCCCC1C(=O)O (stereo not drawn) [1-Methylpiperidine-2-carboxylic acid] | 1.1
2 | Cn1c(=O)[nH]c2nc[nH]c2c1=O [1-Methylxanthine] | 6.63
3 | O=Cc1ccc[nH]1 [1H-pyrrole-2-carboaldehyde] | 7.8
4 | CCCC(C(=O)O)c1cccc(O)c1 (stereo not drawn) [3-Hydroxyphenylvaleric acid] | 10.9
5 | O=C(O)CCCCc1ccc(O)c(O)c1 [5-(3,4 dihydroxyphenyl)valeric acid] | 9.86
6 | OCC1OC(Oc2ccc(O)cc2)C(O)C(O)C1O (stereo not drawn) [Arbutin] | 1.34
7 | CC(C)=CCCC(C)=CCOc1c2ccoc2cc2oc(=O)ccc12 [Bergamottin] | 17.4
8 | COc1c2ccoc2cc2oc(=O)ccc12 [Bergapten] | 12.6
9 | COc1ccc(-c2coc3cc(O)cc(O)c3c2=O)cc1 [Biochanin A] | 13.5
10 | COc1cc(CNC(=O)CCCCC=CC(C)C)ccc1O [Capsaicin] | 13.7
11 | CC(C)CC1NC(=O)C2CCCN2C1=O (stereo not drawn) [Cyclo(leucyl-prolyl)] | 9.2
12 | COc1ccc(-c2cc(=O)c3c(O)cc(O)cc3o2)cc1O [Diosmetin] | 11.8
13 | OCC(Cc1cccc(O)c1)C(CO)Cc1cccc(O)c1 (stereo not drawn) [Enterodiol] | 10.6
14 | COc1ccc(-c2coc3cc(O)ccc3c2=O)cc1 [Formononetin] | 12.4
15 | COc1cc(C2CC(=O)c3c(O)cc(O)cc3O2)ccc1O (stereo not drawn) [Homoeriodictyol] | 11.7
16 | COc1ccc(-c2oc3cc(O)cc(O)c3c(=O)c2O)cc1 [Kaempferide] | 13.4
17 | COc1ccc(-c2cc(=O)c3c(OC)c(OC)c(OC)c(OC)c3o2)cc1OC [Nobiletin] | 13.2
18 | O=C(C=CC=Cc1ccc2c(c1)OCO2)N1CCCCC1 [Piperine] | 13.7
19 | Oc1cc(O)c2c(c1)OC(c1ccc(O)c(O)c1)C(O)C2c1c(O)cc(O)c2c1OC(c1ccc(O)c(O)c1)C(O)C2 (stereo not drawn) [Procyanidin B2] | 8.35
20 | COc1cc(O)c2c(=O)c(O)c(-c3ccc(O)c(O)c3)oc2c1 [Rhamnetin] | 12.5
21 | COc1ccc(-c2cc(=O)c3c(OC)c(OC)c(OC)cc3o2)cc1OC [Sinensetin] | 12.6
22 | COc1ccc(-c2oc3cc(O)cc(O)c3c(=O)c2O)cc1O [Tamarixetin] | 11.9
23 | CC1CCC2(NC1)OC1CC3C4CCC5CC(O)CCC5(C)C4CCC3(C)C1C2C (stereo not drawn) [Tomatidine] | 11.8
24 | O=c1cc(-c2ccc(O)cc2)oc2c(C3OC(CO)C(O)C(O)C3O)c(O)cc(O)c12 (stereo not drawn) [Vitexin] | 9.12

Experiment: RP, Agilent InfinityLab Poroshell 120 EC-C18, 100 × 3 mm, 2.7 µm, 25 °C, 0.4 mL/min, estimated dead time 1.1 min; A: water + 0.1% formic acid, pH 3; B: acetonitrile + 0.1% formic acid, pH 3; gradient (min/%B) 0/5 10/25 20/40 24/90 25/90 26/5 30/5
Conditions: stereoisomer not certain

Row | SMILES | LC retention time [min]
25 | O=C1CCC(Cc2ccc(O)c(OS(=O)(=O)O)c2)O1 (stereo not drawn) | 6.5
26 | O=C1CCC(Cc2cccc(O)c2)O1 (stereo not drawn) | 10.6
27 | COc1cc(CC(CO)C(CO)Cc2ccc(O)c(OC)c2)ccc1O (single isomer, unassigned; (-)) [(-)-Secoisolariciresinol] | 11.5
28 | O=C(O)c1c(O)cccc1O [2,6-Dihydroxybenzoic acid] | 6.49
29 | O=C(O)C1OC(Oc2ccc(-c3coc4cc(O)ccc4c3=O)cc2)C(O)C(O)C1O (stereo not drawn) [Daidzein 4'-O-glucuronide] | 8.83
30 | O=C(O)C1OC(Oc2ccc3c(=O)c(-c4ccc(O)cc4)coc3c2)C(O)C(O)C1O (stereo not drawn) [Daidzein 7-O-glucuronide] | 7.51
31 | O=c1c(-c2ccc(O)cc2)coc2cc(OS(=O)(=O)O)ccc12 [Daidzein sulfate] | 9.85
32 | Oc1ccc(CCc2cc(O)cc(O)c2)cc1 [Dihydroresveratrol] | 12.8
33 | OCC(Cc1cccc(O)c1)C(CO)Cc1cccc(O)c1 (stereo not drawn) [Enterodiol] | 13.5
34 | O=S(=O)([O-])Oc1ccc(C2COc3cc(O)ccc3C2)cc1 (stereo not drawn) [Equol sulfate] | 11.6
35 | O=C(O)C1OC(Oc2ccc(-c3coc4cc(O)cc(O)c4c3=O)cc2)C(O)C(O)C1O (stereo not drawn) [Genistein 4'-O-glucuronide] | 10.7
36 | COc1ccc(C2CC(=O)c3c(O)cc(O)cc3O2)cc1OS(=O)(=O)O (stereo not drawn) [Hesperetin 3'-O-sulfate] | 13.3
37 | COc1ccc(C2CC(=O)c3c(O)cc(OS(=O)(=O)O)cc3O2)cc1O (stereo not drawn) [Hesperetin 7-sulfate] | 12.6
38 | O=c1oc2cc(O)ccc2c2cc(O)ccc12 [Isourolithin  A] | 12.7
39 | O=C(O)C1OC(Oc2ccc3c(c2)oc(=O)c2ccc(O)cc23)C(O)C(O)C1O (stereo not drawn) [Isourolithin A glucuronide] | 8.44
40 | O=S(=O)(O)Oc1ccc(C=Cc2cc(O)cc(O)c2)cc1 [Resveratrol 4'-sulfate] | 10
41 | Cc1c(O)cc2c(c1O)C(=O)c1ccccc1C2=O [Rubiadin] | 23.8
42 | COc1cc(CC(COC2OC(CO)C(O)C(O)C2O)C(COC2OC(CO)C(O)C(O)C2O)Cc2ccc(O)c(OC)c2)ccc1O (stereo not drawn) [Secoisolariciresinol diglucoside] | 8.08
43 | O=c1oc2cc(OS(=O)(=O)O)ccc2c2ccc(O)cc12 [Urolithin A-3-sulfate] | 9.67
44 | O=c1oc2cc(OS(=O)(=O)O)ccc2c2ccccc12 [Urolithin B-3-sulfate] | 12.7
45 | O=c1oc2cc(O)ccc2c2c(O)c(O)c(O)cc12 [Urolithin M6] | 9.62
46 | O=c1oc2cc(O)ccc2c2c(O)cc(O)cc12 [Urolithin M7] | 11.2
47 | O=C1c2ccccc2C(=O)c2c1cc(O)c(CO)c2O [lucidin] | 18.6

Experiment: RP, Waters ACQUITY UPLC BEH C18, 100 × 2.1 mm, 1.7 µm, 65 °C, 0.4 mL/min, estimated dead time 0.55 min; A: water + 0.1% formic acid, pH 3; B: 80% acetonitrile + 20% acetone + 0.1% formic acid, pH 3; gradient (min/%B) 0/0 5/100 5.5/0 6/0
Conditions: stereoisomer not certain

Row | SMILES | LC retention time [min]
48 | COc1cc(CC2COC(=O)C2Cc2ccc(O)c(OC)c2)ccc1O (single isomer, unassigned; (-)) [(-)-Matairesinol] | 2.86
49 | COc1cc(CC(CO)C(CO)Cc2ccc(O)c(OC)c2)ccc1O (single isomer, unassigned; (-)) [(-)-Secoisolariciresinol] | 2.4
50 | COc1cccc(OC)c1O [2,6-Dimethoxyphenol] | 2.36
51 | CC(C)C(O)(CC(=O)O)C(=O)O (stereo not drawn) [2-Isopropylmalic acid] | 1.72
52 | O=C1CCCCN1 [2-Piperidinone] | 1.37
53 | CC1(O)Cc2c(O)cc(O)cc2OC1c1ccc(O)c(O)c1 (stereo not drawn) [3-Methylepicatechin] | 1.99
54 | O=C(O)CC(O)c1ccccc1 (stereo not drawn) [3-hydroxy-3-phenylpropionic acid] | 2.06
55 | COc1cc(C(C)=O)ccc1O [4'-Hydroxy-3'methoxyacetophenone] | 2.18
56 | Nc1ccc(C(=O)O)cc1 [4-Aminobenzoic acid] | 1.53
57 | Cc1cc(C(=O)O)ccc1O [4-Hydroxy-3-methylbenzoic acid] | 2.03
58 | C=C1CCC(O)CC1=CC=C1CCCC2(C)C1CCC2C(C)C=CC(C)C(C)(C)O (stereo not drawn) [25-Hydroxyvitamin-D2] | 5.07
59 | O=Cc1c[nH]c2ccccc12 [Indole-3-carbaldehyde] | 2.32
60 | CC12C=Cc3occc3C1CCC13CC(CCC12)C(O)(CO)C3 (stereo not drawn) [Kahweol] | 3.73
61 | CC(O)(CCO)CC(=O)[O-] (stereo not drawn) [Mevalonic acid] | 1.35
62 | O=C(O)c1ccc2ccccc2n1 [Quinaldic acid] | 1.68
63 | Cc1cc2nc3c(=O)[nH]c(=O)nc-3n(CC(O)C(O)C(O)CO)c2cc1C (stereo not drawn) [Riboflavin] | 1.73
64 | COc1ccc(-c2oc3cc(O)cc(O)c3c(=O)c2O)cc1O [Tamarixetin] | 2.96
65 | Cn1c(=O)c2[nH]cnc2n(C)c1=O [Theophylline] | 1.5
66 | NCCc1c[nH]c2ccccc12 [Tryptamine] | 1.51
67 | COc1cc(C(O)C(=O)O)ccc1O (stereo not drawn) [Vanillylmandelic acid] | 1.42

Experiment: RP, Agilent ZORBAX Eclipse XDB-C18, 100 × 2.1 mm, 1.8 µm, 50 °C, 0.4 mL/min, estimated dead time 0.55 min; A: water + 0.1% formic acid, pH 3; B: methanol + 0.1% formic acid, pH 3; gradient (min/%B) 0/2 10/100 14.5/100 14.51/2 16.5/2
Conditions: stereoisomer not certain

Row | SMILES | LC retention time [min]
68 | NCC(O)c1ccccc1 (stereo not drawn) [2-Amino-1-phenylethanol] | 1.42
69 | COc1c(O)cccc1O [2-Methoxyresorcinol] | 2.68
70 | O=C(O)Cc1cc(O)cc(O)c1 [3,5-Dihydroxyphenylacetic acid] | 2.21
71 | O=C([O-])CCc1ccccc1O [3-(2-Hydroxyphenyl)propionic acid] | 4.8
72 | Nc1ccc(C(=O)O)cc1 [4-Aminobenzoic acid] | 2.08
73 | O=C(O)CCCCC(=O)O [Adipic acid] | 2.63
74 | O=C(O)CNC(=O)C=Cc1ccccc1 [Cinnamoylglycine] | 4.75
75 | C=C1CCC(O)CC1=CC=C1CCCC2(C)C1CCC2C(C)C=CC(C)C(C)C (stereo not drawn) [Ergocalciferol] | 11.8
76 | O=C(O)Cc1cc(O)ccc1O [Homogentisic acid] | 1.82
77 | O=C([O-])C(O)c1ccccc1 (stereo not drawn) [Mandelic acid] | 3.01
78 | Cc1cc2nc3c(=O)[nH]c(=O)nc-3n(CC(O)C(O)C(O)CO)c2cc1C (stereo not drawn) [Riboflavin] | 4.17
79 | CC1NCCc2cc(O)c(O)cc21 (stereo not drawn) [Salsolinol] | 1.57
80 | Cn1c(=O)c2[nH]cnc2n(C)c1=O [Theophylline] | 3.05
81 | NCCc1c[nH]c2ccccc12 [Tryptamine] | 2.51
82 | COc1cc(C(O)C(=O)O)ccc1O (stereo not drawn) [Vanillylmandelic acid] | 1.65
83 | CC1=C(/C=C/C(C)=C/C=C/C(C)=C/C=C/C=C(C)/C=C/C=C(C)/C=C/C2=C(C)CCCC2(C)C)C(C)(C)CCC1 [beta-carotene] | 13.8
